The target in this experiment is T1, CDK2/cyclin A (Homo sapiens, UniProt P24941).
T1 construct: made in house; host or cells: insect ('worm') cells co-infected with baculoviruses
Kind of experiment: CDK2 inhibitory activity (CDK2/cyclin A, [gamma-32P] ATP, histon H1 or Rb protein substrate). It counts as biochemical. Conditions: first IC50 column (c1) of Table 1. From the text: CDK2 enzyme was obtained from either extract from the worm cell co-infected with baculovirus which expresses a CDK2 gene and baculovirus which expresses a cyclin A gene, or active enzyme purified therefrom. CDK4 was also obtained from either extract from the worm cell co-infected with baculovirus which expresses a CDK4 gene and baculovirus which expresses a cyclin D1 gene. As substrates, histon H1 or Rb protein was used for CDK2, and Rb protein for CDK4. The radioactive activities in substrates were determined by reacting compounds diluted with each concentration with a proper quantity of CDK2/cyclin A or CDK4/cyclin D1 and substrate protein, and [gamma-32P labeled] ATP, and then separating the substrates.
Inhibitory abilities of inhibitors according to the present invention for each enzyme activity were expressed as IC50 values, which were determined in accordance with the method as described above.
Usually IC50 stands for the concentration that gives 50% inhibition. In the case of `O=C(Nc1n[nH]c2ccc(N3CCCS3(=O)=O)cc12)C(c1ccccc1)C1CCCC1` (stereo not drawn) [Compound 56, 2-cyclopentyl-N-[5-(1,1-dioxo-1λ^6-isothiazolidin-2-yl)-1H-indazol-3-yl]-2-phenylacetamide], the IC50 is below 100000 nM.

For the compound `O=C(Cn1cnc(-c2ccc(Br)cc2)c1)Nc1n[nH]c2ccc(N3CCCS3(=O)=O)cc12` [Compound 61, 2-[4-(4-bromophenyl)-1H-imidazol-1-yl]-N-[5-(1,1-dioxo-1λ^6-isothiazolidin-2-yl)-1H-indazol-3-yl]acetamide], the IC50 was below 100 nM.

As for `COCCOCCOCCOc1ccc(CC(=O)Nc2n[nH]c3ccc(N4CCCS4(=O)=O)cc23)cc1` [Compound 66, N-[5-(1,1-dioxo-1λ^6-isothiazolidin-2-yl)-1H-indazol-3-yl]-2-(4-2-[2-(2-methoxyethoxy)ethoxy]ethoxyphenyl)acetamide], the IC50 was below 100 nM.

`CCN(CC)c1cccc(CC(=O)Nc2n[nH]c3ccc(N4CCCS4(=O)=O)cc23)c1` [Compound 70, 2-[3-(diethylamino)phenyl]-N-[5-(1,1-dioxo-1λ^6-isothiazolidin-2-yl)-1H-indazol-3-yl]acetamide] gave an IC50 below 500 nM.

`O=C(Cn1cnc(-c2ccc(-c3ccccc3)cc2)c1)Nc1n[nH]c2ccc(N3CCCS3(=O)=O)cc12` [Compound 63, 2-(4-[1,1′-biphenyl]-4-yl-1H-imidazol-1-yl)-N-[5-(1,1-dioxo-1λ^6-isothiazolidin-2-yl)-1H-indazol-3-yl]acetamide] registered an IC50 below 500 nM.

On to `CCOc1ccccc1N1CCN(CC(=O)Nc2n[nH]c3ccc(N4CCCS4(=O)=O)cc23)CC1` [Compound 52, N-[5-(1,1-dioxo-1λ^6-isothiazolidin-2-yl)-1H-indazol-3-yl]-2-[4-(2-ethoxyphenyl)-1-piperazinyl]acetamide], for which the half-maximal inhibitory concentration (IC50) was below 10000 nM.

In the case of `CCOc1ccc(CC(=O)Nc2n[nH]c3ccc(N4CCCS4(=O)=O)cc23)cc1Cl` [Compound 74, 2-(3-chloro-4-ethoxyphenyl)-N-[5-(1,1-dioxo-1λ^6-isothiazolidin-2-yl)-1H-indazol-3-yl]acetamide], the IC50 is below 100 nM.

`CN1CCN(S(=O)(=O)c2ccc(CC(=O)Nc3n[nH]c4ccc(N5CCCS5(=O)=O)cc34)cc2)CC1` [Compound 40, N-[5-(1,1-dioxo-1λ^6-isothiazolidin-2-yl)-1H-indazol-3-yl]-2-4-[(4-methyl-1-piperazinyl)sulfonyl]phenylacetamide] gave an IC50 below 1000 nM.

`Cc1cccc(CC(=O)Nc2n[nH]c3ccc(N4CCCS4(=O)=O)cc23)c1` [Compound 27, N-[5-(1,1-dioxo-1λ^6-isothiazolidin-2-yl)-1H-indazol-3-yl]-2-(3-methylphenyl)acetamide] gave an IC50 below 50 nM.

The compound `O=C(Cc1csc(NCc2ccc(OCc3ccccc3)cc2)n1)Nc1n[nH]c2ccc(N3CCCS3(=O)=O)cc12` [Compound 77, 2-(2-[4-(benzyloxy)benzyl]amino-1,3-thiazol-4-yl)-N-[5-(1,1-dioxo-1λ^6-isothiazolidin-2-yl)-1H-indazol-3-yl]acetamide] displayed an IC50 below 10000 nM.

Take `O=C(Cc1ccc(S(=O)(=O)N2CCOCC2)cc1)Nc1n[nH]c2ccc(N3CCCS3(=O)=O)cc12` [Compound 37, N-[5-(1,1-dioxo-1λ^6-isothiazolidin-2-yl)-1H-indazol-3-yl]-2-[4-(4-morpholinylsulfonyl)phenyl]acetamide]: the concentration for half-maximal inhibition (IC50) is below 100 nM.

Consider `CCNc1cccc(CC(=O)Nc2n[nH]c3ccc(N4CCCS4(=O)=O)cc23)c1` [Compound 69, N-[5-(1,1-dioxo-1λ^6-isothiazolidin-2-yl)-1H-indazol-3-yl]-2-[3-(ethylamino)phenyl]acetamide], for which the IC50 is below 500 nM.

Regarding `O=C(Cn1cnc(-c2ccc3ccccc3c2)c1)Nc1n[nH]c2ccc(N3CCCS3(=O)=O)cc12` [Compound 62, N-[5-(1,1-dioxo-1λ^6-isothiazolidin-2-yl)-1H-indazol-3-yl]-2-[4-(2-naphthyl)-1H-imidazol-1-yl]acetamide], the half-inhibitory concentration (IC50) was below 50 nM.

As for `O=C(Nc1n[nH]c2ccc(N3CCCS3(=O)=O)cc12)C1(c2ccccc2)CCCC1` [Compound 55, N-[5-(1,1-dioxo-1λ^6-isothiazolidin-2-yl)-1H-indazol-3-yl]-1-phenylcyclopentanecarboxamide], the IC50 was below 100000 nM.

`CS(=O)(=O)c1ccc(CC(=O)Nc2n[nH]c3ccc(N4CCCS4(=O)=O)cc23)cc1` [Compound 29, N-[5-(1,1-dioxo-1λ^6-isothiazolidin-2-yl)-1H-indazol-3-yl]-2-[4-(methylsulfonyl)phenyl]acetamide] displayed an IC50 below 50 nM.

`O=C(Cc1ccc(N(Cc2ccccc2)Cc2ccccc2)cc1)Nc1n[nH]c2ccc(N3CCCS3(=O)=O)cc12` [Compound 5, 2-[4-(dibenzylamino)phenyl]-N-[5-(1,1-dioxo-1λ^6-isothiazolidin-2-yl)-1H-indazol-3-yl]acetamide] displayed an IC50 below 500 nM.

In turn, `Nc1cccc(CC(=O)Nc2n[nH]c3ccc(N4CCCS4(=O)=O)cc23)c1` [Compound 21, 2-(3-aminophenyl)-N-[5-(1,1-dioxo-1λ^6-isothiazolidin-2-yl)-1H-indazol-3-yl]acetamide] had an IC50 below 50 nM.

`O=C(Cc1ccc(Br)cc1)Nc1n[nH]c2ccc(N3CCCS3(=O)=O)cc12` [Compound 12, 2-(4-bromophenyl)-N-[5-(1,1-dioxo-1λ^6-isothiazolidin-2-yl)-1H-indazol-3-yl]acetamide] displayed an IC50 below 50 nM.

Turning to `O=C(CN1CCOCC1)Nc1n[nH]c2ccc(N3CCCS3(=O)=O)cc12` [Compound 31, N-[5-(1,1-dioxo-1λ^6-isothiazolidin-2-yl)-1H-indazol-3-yl]-2-(4-morpholinyl)acetamide], the IC50 is below 10000 nM.

`CC(=S)Nc1n[nH]c2ccc(N3CCCS3(=O)=O)cc12` [Compound 22, N-[5-(1,1-dioxo-1λ^6-isothiazolidin-2-yl)-1H-indazol-3-yl]ethanethioamide] gave an IC50 below 50000 nM.

The compound `CCN(CC)c1ccc(CC(=O)Nc2n[nH]c3ccc(N4CCCS4(=O)=O)cc23)cc1` [Compound 73, 2-[4-(diethylamino)phenyl]-N-[5-(1,1-dioxo-1λ^6-isothiazolidin-2-yl)-1H-indazol-3-yl]acetamide] had an IC50 below 50 nM.

Turning to `CCOc1ccc(CC(=O)Nc2n[nH]c3ccc(N4CCCS4(=O)=O)cc23)cc1S(=O)(=O)N1CCN(C)CC1` [Compound 81, N-[5-(1,1-dioxo-1λ^6-isothiazolidin-2-yl)-1H-indazol-3-yl]-2-4-ethoxy-3-[(4-methyl-1-piperazinyl)sulfonyl]phenylacetamide], the half-maximal inhibitory concentration (IC50) is below 1000 nM.

`O=C(Cc1ccc([N+](=O)[O-])cc1)Nc1n[nH]c2ccc(N3CCCS3(=O)=O)cc12` [Compound 45, N-[5-(1,1-dioxo-1λ^6-isothiazolidin-2-yl)-1H-indazol-3-yl]-2-(4-nitrophenyl)acetamide] came in with an IC50 below 50 nM.

`O=C(Cc1ccc(N2CCOCC2)cc1)Nc1n[nH]c2ccc(N3CCCS3(=O)=O)cc12` [Compound 35, N-[5-(1,1-dioxo-1λ^6-isothiazolidin-2-yl)-1H-indazol-3-yl]-2-[4-(1-morpholinyl)phenyl]acetamide] had an IC50 below 100 nM.

Regarding `COc1cc(CC(=O)Nc2n[nH]c3ccc(N4CCCS4(=O)=O)cc23)cc(OC)c1` [Compound 71, 2-(3,5-dimethoxyphenyl)-N-[5-(1,1-dioxo-1λ^6-isothiazolidin-2-yl)-1H-indazol-3-yl]acetamide], the IC50 is below 50 nM.

`O=C(CCc1ccccc1)Nc1n[nH]c2ccc(N3CCCS3(=O)=O)cc12` [Compound 25, N-[5-(1,1-dioxo-1λ^6-isothiazolidin-2-yl)-1H-indazol-3-yl]-3-phenylpropanamide]: the IC50 is below 1000 nM.

`CC(=O)c1ccc(N2CCN(CC(=O)Nc3n[nH]c4ccc(N5CCCS5(=O)=O)cc34)CC2)cc1` [Compound 53, 2-[4-(4-acetylphenyl)-1-piperazinyl]-N-[5-(1,1-dioxo-1λ^6-isothiazolidin-2-yl)-1H-indazol-3-yl]acetamide]: the 50% inhibitory concentration (IC50) is below 10000 nM.

In the case of `CCNc1nc(CC(=O)Nc2n[nH]c3ccc(N4CCCS4(=O)=O)cc23)cs1` [Compound 64, N-[5-(1,1-dioxo-1λ^6-isothiazolidin-2-yl)-1H-indazol-3-yl]-2-[2-(ethylamino)-1,3-thiazol-4-yl]acetamide], the half-maximal inhibitory concentration (IC50) is below 500 nM.

With `Nc1nc(CC(=O)Nc2n[nH]c3ccc(N4CCCS4(=O)=O)cc23)cs1` [Compound 60, 2-(2-amino-1,3-thiazol-4-yl)-N-[5-(1,1-dioxo-1λ^6-isothiazolidin-2-yl)-1H-indazol-3-yl]acetamide], the IC50 is below 500 nM.

Compound `O=C(Cc1ccc(-c2ccco2)cc1)Nc1n[nH]c2ccc(N3CCCS3(=O)=O)cc12` [Compound 39, N-[5-(1,1-dioxo-1λ^6-isothiazolidin-2-yl)-1H-indazol-3-yl]-2-[4-(2-furyl)phenyl]acetamide] gave an IC50 below 50 nM.

`O=C(Cc1ccc(Cl)c(Cl)c1)Nc1n[nH]c2ccc(N3CCCS3(=O)=O)cc12` [Compound 24, 2-(3,4-dichlorophenyl)-N-[5-(1,1-dioxo-1λ^6-isothiazolidin-2-yl)-1H-indazol-3-yl]acetamide] registered an IC50 below 50 nM.

In turn, `CC(C)(C)OC(=O)Nc1nc(CC(=O)Nc2n[nH]c3ccc(N4CCCS4(=O)=O)cc23)cs1` [Compound 58, t-butyl 4-(2-[5-(1,1-dioxo-1λ^6-isothiazolidin-2-yl)-1H-indazol-3-yl]amino-2-oxoethyl)-1,3-thiazol-2-ylcarbamate] gave an IC50 below 100 nM.

In turn, `O=C(Cc1ccccc1)Nc1n[nH]c2ccc(N3CCCS3(=O)=O)cc12` [Compound 1, N-[5-(1,1-dioxo-1λ^6-isothiazolidin-2-yl)-1H-indazol-3-yl]-2-phenylacetamide] showed a 50% inhibitory concentration (IC50) below 50 nM.

The values above are taken from patent US6620831B2, “Indazoles substituted with 1,1-dioxoisothiazolidine useful as inhibitors of cell proliferation” (LG Life Sciences Ltd., priority 2000, dated 2003).
